Values joined by “and” are separate entries in the source; they are usually repeats but may differ in a detail not shown here. Equal values may be shown once. Toxic doses and inconclusive results are not listed. No stated cut-off is given here; in the data, active means T/C of 150% or more; inactive means T/C below 125%. Square brackets hold non-standard residues; d marks the D form. Peptide text beside a SMILES is read from it. ξ: configuration not given here. ξY = NC(Cc1ccc(O)cc1)C(=O)O
Test system: L1210 leukemia ip in BDF1 mice, survival T/C
Assay: NCI In Vivo Anticancer Drug Screen. Data for tumor model L1210 Leukemia (intraperitoneal) in B6D2F1 (BDF1) mice
Conditions: endpoint: mean survival time, higher = longer survival
How it was run: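 Survival endpoint. Drug-treated group vs vehicle group, expressed as T divided by C. Tumor passaged by transplantation.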

[1] = dose: 100.0 mg/kg/injection, schedule: Q04DX003 (ip), vehicle: Klucel (hydroxypropylcellulose) (HPC)
[2] = dose: 200.0 mg/kg/injection, schedule: Q04DX003 (ip), vehicle: Klucel (hydroxypropylcellulose) (HPC)
[3] = dose: 100.0 mg/kg/injection, schedule: Q01DX009 (ip), vehicle: saline
[4] = dose: 200.0 mg/kg/injection, schedule: Q01DX009 (ip), vehicle: saline
[5] = dose: 400.0 mg/kg/injection, schedule: Q01DX009 (ip), vehicle: saline
[6] = dose: 100.0 mg/kg/injection, schedule: Q04DX002 (ip), vehicle: Klucel (hydroxypropylcellulose) (HPC)
[7] = dose: 200.0 mg/kg/injection, schedule: Q04DX002 (ip), vehicle: Klucel (hydroxypropylcellulose) (HPC)
[8] = dose: 400.0 mg/kg/injection, schedule: Q04DX002 (ip), vehicle: Klucel (hydroxypropylcellulose) (HPC)
[9] = dose: 400.0 mg/kg/injection, schedule: Q04DX003 (ip), vehicle: Klucel (hydroxypropylcellulose) (HPC)
[10] = dose: 100.0 mg/kg/injection, schedule: Q01DX009 (ip), vehicle: saline with Tween-80
[11] = dose: 200.0 mg/kg/injection, schedule: Q01DX009 (ip), vehicle: saline with Tween-80
[12] = dose: 100.0 mg/kg/injection, schedule: Q04DX003 (ip), vehicle: acetone
[13] = dose: 200.0 mg/kg/injection, schedule: Q04DX003 (ip), vehicle: acetone
[14] = dose: 400.0 mg/kg/injection, schedule: Q04DX003 (ip), vehicle: acetone
[15] = dose: 100.0 mg/kg/injection, schedule: Q01DX001 (ip), vehicle: saline
[16] = dose: 200.0 mg/kg/injection, schedule: Q01DX001 (ip), vehicle: saline
[17] = dose: 400.0 mg/kg/injection, schedule: Q01DX001 (ip), vehicle: saline

Measured: T/C

C1CN2CCN1CC2
inactive: dose: 37.5 mg/kg/injection, schedule: Q01DX009 (ip), vehicle: Klucel (hydroxypropylcellulose) (HPC) 91 % of control | dose: 75.0 mg/kg/injection, schedule: Q01DX009 (ip), vehicle: Klucel (hydroxypropylcellulose) (HPC) 91 % of control | dose: 150.0 mg/kg/injection, schedule: Q01DX009 (ip), vehicle: Klucel (hydroxypropylcellulose) (HPC) 89 % of control | dose: 300.0 mg/kg/injection, schedule: Q01DX009 (ip), vehicle: Klucel (hydroxypropylcellulose) (HPC) 94 % of control

COc1cc(C(C)=O)ccc1OS(C)(=O)=O
inactive: dose: 20.0 mg/kg/injection, schedule: Q01DX009 (ip), vehicle: Klucel (hydroxypropylcellulose) (HPC) 100 % of control | dose: 20.0 mg/kg/injection, schedule: Q04DX003 (ip), vehicle: Klucel (hydroxypropylcellulose) (HPC) 106 % of control | dose: 40.0 mg/kg/injection, schedule: Q01DX009 (ip), vehicle: Klucel (hydroxypropylcellulose) (HPC) 98 % of control | dose: 40.0 mg/kg/injection, schedule: Q04DX003 (ip), vehicle: Klucel (hydroxypropylcellulose) (HPC) 93 % of control | dose: 80.0 mg/kg/injection, schedule: Q01DX009 (ip), vehicle: Klucel (hydroxypropylcellulose) (HPC) 96 % of control | dose: 80.0 mg/kg/injection, schedule: Q04DX003 (ip), vehicle: Klucel (hydroxypropylcellulose) (HPC) 98 % of control

COc1c(C)c2c(c(Br)c1N)COCO2
inactive: dose: 50.0 mg/kg/injection, schedule: Q01DX001 (ip), vehicle: Klucel (hydroxypropylcellulose) (HPC) 94 % of control | dose: 100.0 mg/kg/injection, schedule: Q01DX001 (ip), vehicle: Klucel (hydroxypropylcellulose) (HPC) 92 % of control | [1] 95 % of control | dose: 200.0 mg/kg/injection, schedule: Q01DX001 (ip), vehicle: Klucel (hydroxypropylcellulose) (HPC) 94 % of control | [2] 97 % of control

COC1(c2ccc(Cl)s2)OC1(C)C (stereo not drawn)
inactive: [3] 100 % of control | dose: 100.0 mg/kg/injection, schedule: Q04DX003 (ip), vehicle: saline 100 % of control | [4] 96 % of control | dose: 200.0 mg/kg/injection, schedule: Q04DX003 (ip), vehicle: saline 105 % of control | [5] 105 % of control | dose: 400.0 mg/kg/injection, schedule: Q04DX003 (ip), vehicle: saline 96 % of control

CCCCCCCCCCCCCCCCCCNC(=O)NCCN(C)c1ccccc1
inactive: dose: 100.0 mg/kg/injection, schedule: Q01DX009 (ip), vehicle: carboxymethylcellulose (CMC) 87 % of control and 91 % of control | [6] 108 % of control | dose: 100.0 mg/kg/injection, schedule: Q04DX002 (ip), vehicle: carboxymethylcellulose (CMC) 95 % of control and 97 % of control | dose: 100.0 mg/kg/injection, schedule: Q04DX003 (ip), vehicle: carboxymethylcellulose (CMC) 95 % of control | dose: 200.0 mg/kg/injection, schedule: Q01DX009 (ip), vehicle: carboxymethylcellulose (CMC) 90 % of control | [7] 112 % of control | dose: 200.0 mg/kg/injection, schedule: Q04DX002 (ip), vehicle: carboxymethylcellulose (CMC) 93 % of control and 95 % of control | dose: 200.0 mg/kg/injection, schedule: Q04DX003 (ip), vehicle: carboxymethylcellulose (CMC) 104 % of control | [8] 102 % of control | dose: 400.0 mg/kg/injection, schedule: Q04DX002 (ip), vehicle: carboxymethylcellulose (CMC) 95 % of control and 90 % of control | dose: 400.0 mg/kg/injection, schedule: Q04DX003 (ip), vehicle: carboxymethylcellulose (CMC) 86 % of control

COc1ccccc1/C=C(\C(=O)O)c1cccc2ccccc12
inactive: [1] 93 % of control | [2] 100 % of control | [9] 98 % of control

c1ccc([Si](OO[Si](c2ccccc2)(c2ccccc2)c2ccccc2)(c2ccccc2)c2ccccc2)cc1
inactive: [10] 86 % of control | [11] 87 % of control

CCN(c1ccccc1P(c1ccccc1)c1ccccc1)c1ccccc1P(c1ccccc1)c1ccccc1
inactive: dose: 25.6 mg/kg/injection, schedule: Q04DX002 (ip), vehicle: saline with Tween-80 89 % of control | dose: 64.0 mg/kg/injection, schedule: Q04DX002 (ip), vehicle: saline with Tween-80 89 % of control | dose: 160.0 mg/kg/injection, schedule: Q04DX002 (ip), vehicle: saline with Tween-80 89 % of control | dose: 400.0 mg/kg/injection, schedule: Q04DX002 (ip), vehicle: saline with Tween-80 89 % of control

COc1ccc2nc(NCN3C(=O)c4ccccc4C3=O)sc2c1
inactive: [10] 96 % of control | [12] 88 % of control | [11] 95 % of control | [13] 88 % of control | dose: 400.0 mg/kg/injection, schedule: Q01DX009 (ip), vehicle: saline with Tween-80 93 % of control | [14] 90 % of control

c1ccc(COc2ccc(Cc3nccc4ccccc34)cc2OCc2ccccc2)cc1
inactive: dose: 100.0 mg/kg/injection, schedule: Q04DX003 (ip), vehicle: saline with Tween-80 88 % of control | dose: 400.0 mg/kg/injection, schedule: Q04DX003 (ip), vehicle: saline with Tween-80 88 % of control

NCC(=O)NC(Cc1ccc(O)cc1)C(=O)O (stereo not drawn) (H-Gly-[ξY]-OH)
inactive: [15] 104 % of control | [16] 105 % of control and 102 % of control | [17] 98 % of control and 93 % of control

CCC1=CCC=CC1
inactive: dose: 50.0 mg/kg/injection, schedule: Q01DX001 (ip), vehicle: carboxymethylcellulose (CMC) 101 % of control | dose: 100.0 mg/kg/injection, schedule: Q01DX001 (ip), vehicle: carboxymethylcellulose (CMC) 104 % of control | dose: 200.0 mg/kg/injection, schedule: Q01DX001 (ip), vehicle: carboxymethylcellulose (CMC) 104 % of control | dose: 400.0 mg/kg/injection, schedule: Q01DX001 (ip), vehicle: carboxymethylcellulose (CMC) 109 % of control

N#Cc1ccccc1N=NNc1ccccc1C#N
inactive: dose: 6.25 mg/kg/injection, schedule: Q01DX009 (ip), vehicle: Klucel (hydroxypropylcellulose) (HPC) 112 % of control | dose: 12.5 mg/kg/injection, schedule: Q01DX009 (ip), vehicle: Klucel (hydroxypropylcellulose) (HPC) 112 % of control | dose: 25.0 mg/kg/injection, schedule: Q01DX009 (ip), vehicle: Klucel (hydroxypropylcellulose) (HPC) 115 % of control | dose: 75.0 mg/kg/injection, schedule: Q01DX001 (ip), vehicle: other 96 % of control | dose: 150.0 mg/kg/injection, schedule: Q01DX001 (ip), vehicle: other 92 % of control

O=C(O)c1c2ccc(Cl)cc2nc2[nH]c(=O)[nH]c(=O)c12
inactive: [6] 108 % of control | [7] 120 % of control | [8] 113 % of control

Cc1ccc(S(=O)(=O)Oc2cc([N+](=O)[O-])ccc2N)cc1
inactive: [3] 103 % of control | [4] 105 % of control | [5] 100 % of control

CCCCCC(C)NC(=O)N(CCCl)N=O (stereo not drawn) (tested in a mixture with another compound)
inactive: dose: 12.0 mg/kg/injection, schedule: Q01DX001 (ip), vehicle: saline with Tween-80 109 % of control | dose: 18.0 mg/kg/injection, schedule: Q01DX001 (ip), vehicle: saline with Tween-80 116 % of control | dose: 133.0 mg/kg/injection, schedule: Q01DX001 (ip), vehicle: saline with Tween-80 88 % of control
active: dose: 27.0 mg/kg/injection, schedule: Q01DX001 (ip), vehicle: saline with Tween-80 169 % of control | dose: 40.0 mg/kg/injection, schedule: Q01DX001 (ip), vehicle: saline with Tween-80 151 % of control | dose: 60.0 mg/kg/injection, schedule: Q01DX001 (ip), vehicle: saline with Tween-80 200 % of control | dose: 90.0 mg/kg/injection, schedule: Q01DX001 (ip), vehicle: saline with Tween-80 210 % of control

CN(C)c1ccc(C(C#N)(c2ccc(N(C)C)cc2)c2ccc(N(C)C)cc2)cc1
inactive: dose: 100.0 mg/kg/injection, schedule: Q01DX009 (ip), vehicle: Klucel (hydroxypropylcellulose) (HPC) 95 % of control | [1] 103 % of control | dose: 200.0 mg/kg/injection, schedule: Q01DX009 (ip), vehicle: Klucel (hydroxypropylcellulose) (HPC) 97 % of control | [2] 106 % of control | [9] 90 % of control

Cc1ccc(S(=O)(=O)C2=C(c3ccccc3)c3ccccc3CC2)cc1
inactive: [15] 101 % of control | [3] 93 % of control | [12] 100 % of control | [16] 93 % of control | [4] 91 % of control | [13] 102 % of control | [17] 95 % of control | [5] 93 % of control | [14] 105 % of control

— PubChem BioAssay AID248 (DTP/NCI, 2004)
